Data as given in patent US10174040B2, “Pyrrolopyrimidine compound or salt thereof and compositions containing the pyrrolopyrimidine compound or salt thereof” (TAIHO PHARMACEUTICAL CO., LTD., priority 2014, dated 2019).
Each block holds one compound with its values, some of them ahead of it.

Key:
[1] = test system: human breast cancer MDA-MB-453 cell line; assay: Cell growth inhibition 2 (CellTiter-Glo), MDA-MB-453; assay type: cell-based; settings: 384-well plate
[2] = test system: Human colon cancer HCT-116 cell lines; assay: Antitumor effect on tumor cells transplanted into mice 2 (HCT-116, tumor volume); assay type: in vivo, BALB/cAJcl-nu/nu mice; settings: Dunnett's test; HCT-116 in nude mice; hydrochloride compound of Example 55
[3] = Body weight change, antitumor test 1 (HCT-116 mice); assay type: in vivo, BALB/cAJcl-nu/nu mice
Procedure: (§1) Human colon cancer HCT-116 cell lines were washed in PBS and suspended at a concentration of 4×10^7 cells/mL. 0.1 mL of this cell suspension was subcutaneously implanted in the right chest of 6-week-old BALB/cAJcl-nu/nu mice (produced by CLEA Japan, Inc.).
(§2) The length and the width of the implanted tumor and the body weight were measured. The tumor volume (TV) was calculated using the following equation (equation D). TV (mm3)=(length×width^2)/2, wherein the unit of length and width is mm (equation D).
(§3) When the TV reached 100 to 300 mm3, the animals were assigned to each group in accordance with a stratified randomization procedure. The day was considered day 1, the TV on the day was considered TV1, and the body weight on the day was considered BW1.
(§4) A required amount of the test compound was weighed to prepare an administration solution.
Thereafter, the length and the width of the tumor and the body weight (BWn) on day n were measured over time in the same manner, and the TVn of each mouse was calculated. Further, the relative tumor volume (RTVn) was calculated based on the TVn of each mouse using the following equation (equation E); the treatment/control (T/C) value (%) was calculated based on the mean RTVn of each drug administration group using the following equation (equation F); and the weight change rate (BWCn) was calculated using the following equation (equation G). […]

[4] = test system: human acute leukemia MV-4-11 cell line; assay: Cell growth inhibition 2 (CellTiter-Glo), MV-4-11; assay type: cell-based; settings: MV4-11, 384-well plate
[5] = Body weight change, antitumor test 3 (CCRF-CEM mice); assay type: in vivo, BALB/cAJcl-nu/nu mice (nude mice); settings: for change of the body weight compared with the control: CCRF-CEM nude mice, Test Example 7
Procedure: as §2
(§5) Thereafter, the length and the width of the tumor and the body weight (BWn) on day n were measured over time in the same manner, and the TVn of each mouse was calculated. Further, the relative tumor volume (RTVn) was calculated based on the TVn of each mouse using the following equation (equation E); the treatment/control (T/C) value (%) was calculated based on the mean RTVn of each drug administration group using the following equation (equation F); and the weight change rate (BWCn) was calculated using the following equation (equation G). RTVn=TVn/TV1 (equation E) T/Cn(%)=(mean RTV of each drug administration group on the last day of the test)/(mean RTV of the control group on the last day of the test)×100 (equation F) BWCn (%)=(BWn−BW1)/BW1×100 (equation G) FIGS. 1 and 2, and Table 21 below show the results.
(§6) The tumor growth inhibitory effects on human tumors were evaluated as in Test Example 5, except that the compound hydrochloride obtained in Example 122, the compound hydrochloride (Example 64), and human acute lymphoblastic leukemia (ALL) CCRF-CEM cell lines were used, and the animals were assigned to each group in accordance with a stratified randomization procedure when the TV reached 140 to 380 mm3.
At this time, the cell lines were washed in PBS, and suspended in 50% PBS and 50% Matrigel basement membrane matrix (#356237; produced by BD Biosciences) at a concentration of 1×10^8 cells/mL. 0.1 mL of this cell suspension was subcutaneously implanted to the right chest of 6-week-old BALB/cAJcl-nu/nu mice (nude mice) (produced by CLEA Japan, Inc.). […]

[6] = test system: human osteo- and soft tissue sarcoma SJCRH30 cell line; assay: Cell growth inhibition 2 (CellTiter-Glo), SJCRH30; assay type: cell-based; settings: 384-well plate
[7] = test system: Human colon cancer HCT-116 cell lines; assay: Antitumor effect on tumor cells transplanted into mice 1 (HCT-116, tumor volume); assay type: in vivo, BALB/cAJcl-nu/nu mice; settings: HCT-116 in nude mice; for RTV15 comparison with control: Dunnett's test
Procedure: as §1, §2, §3, §4, §5

[8] = test system: human lung cancer A-427 cell line; assay: Cell growth inhibition 2 (CellTiter-Glo), A-427; assay type: cell-based; settings: 384-well plate
[9] = test system: human pancreatic cancer Capan-1 cell line; assay: Cell growth inhibition 2 (CellTiter-Glo), Capan-1; assay type: cell-based; settings: 384-well plate
[10] = test system: human colon cancer HCT116 cell line; assay: Cell growth inhibition 2 (CellTiter-Glo), HCT116; assay type: cell-based; settings: HCT-116, 384-well plate
[11] = test system: human acute T lymphoblastic leukemia CCRF-CEM cell lines; assay: Cell growth inhibition 1 (CellTiter-Glo), CCRF-CEM; assay type: cell-based; settings: 72 hours culture with compound
[12] = Body weight change, antitumor test 2 (HCT-116 mice); assay type: in vivo, BALB/cAJcl-nu/nu mice; settings: HCT-116 xenograft in nude mice, 120 mg/kg/day, administration days 1, 4, 8, 11, day 15
[13] = test system: human multiple myeloma U266B1 cell line; assay: Cell growth inhibition 2 (CellTiter-Glo), U266B1; assay type: cell-based; settings: 384-well plate
[14] = target: carbonic anhydrase II (Homo sapiens (Human), UniProt P00918); assay: Carbonic anhydrase II enzyme activity inhibition (4-NPA esterase activity); assay type: biochemical
[15] = test system: human diffuse large B-cell lymphoma DB cell line; assay: Cell growth inhibition 2 (CellTiter-Glo), DB; assay type: cell-based; settings: 384-well plate
[16] = test system: human acute lymphoblastic leukemia (ALL) CCRF-CEM cell lines; assay: Antitumor effect on tumor cells transplanted into mice 3 (CCRF-CEM, tumor volume); assay type: in vivo, BALB/cAJcl-nu/nu mice (nude mice); settings: Dunnett's test; CCRF-CEM in nude mice; compound hydrochlorides, intravenous
Procedure: as §2, §5, §6
At this time, the cell lines were washed in PBS, and suspended in 50% PBS and 50% Matrigel basement membrane matrix (#356237; produced by BD Biosciences) at a concentration of 1×10^8 cells/mL. 0.1 mL of this cell suspension was subcutaneously implanted to the right chest of 6-week-old BALB/cAJcl-nu/nu mice (nude mice) (produced by CLEA Japan, Inc.). The compound hydrochloride (Example 122) was intravenously administered in an amount of 5 mL per 1 kg of body weight on days 1 and 8, and the compound hydrochloride (Example 133) was intravenously administered in an amount of 5 mL per 1 kg of body weight on days 1 and 8.

[17] = test system: human skin cancer A-431 cell line; assay: Cell growth inhibition 2 (CellTiter-Glo), A-431; assay type: cell-based; settings: 384-well plate
[18] = test system: human prostate cancer LNCAP.FGC cell line; assay: Cell growth inhibition 2 (CellTiter-Glo), LNCAP.FGC; assay type: cell-based; settings: 384-well plate
[19] = target: NAE (heterodimer of APPBP1 and UBA3) (Homo sapiens (Human), UniProt Q8TBC4); assay: Nedd8 conjugation inhibitory activity (AlphaScreen assay); assay type: biochemical; settings: purified NAE, GST-UBC12, Biotin-Nedd8, ATP
Chain of NAE (heterodimer of APPBP1 and UBA3) (Q8TBC4 whole entry): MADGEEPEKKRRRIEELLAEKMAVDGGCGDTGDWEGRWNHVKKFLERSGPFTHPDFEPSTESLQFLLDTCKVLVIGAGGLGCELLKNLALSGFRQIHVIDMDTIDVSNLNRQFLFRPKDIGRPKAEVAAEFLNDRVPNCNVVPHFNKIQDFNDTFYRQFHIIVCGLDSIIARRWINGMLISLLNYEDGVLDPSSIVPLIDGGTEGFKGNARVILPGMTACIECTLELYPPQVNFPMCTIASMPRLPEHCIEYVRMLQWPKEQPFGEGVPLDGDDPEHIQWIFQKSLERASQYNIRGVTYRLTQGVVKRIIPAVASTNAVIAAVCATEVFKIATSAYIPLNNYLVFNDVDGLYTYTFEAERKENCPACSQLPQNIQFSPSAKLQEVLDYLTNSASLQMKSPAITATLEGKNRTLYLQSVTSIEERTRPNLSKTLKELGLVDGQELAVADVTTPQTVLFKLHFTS
Chain of NAE (heterodimer of APPBP1 and UBA3) (Q13564 whole entry partner): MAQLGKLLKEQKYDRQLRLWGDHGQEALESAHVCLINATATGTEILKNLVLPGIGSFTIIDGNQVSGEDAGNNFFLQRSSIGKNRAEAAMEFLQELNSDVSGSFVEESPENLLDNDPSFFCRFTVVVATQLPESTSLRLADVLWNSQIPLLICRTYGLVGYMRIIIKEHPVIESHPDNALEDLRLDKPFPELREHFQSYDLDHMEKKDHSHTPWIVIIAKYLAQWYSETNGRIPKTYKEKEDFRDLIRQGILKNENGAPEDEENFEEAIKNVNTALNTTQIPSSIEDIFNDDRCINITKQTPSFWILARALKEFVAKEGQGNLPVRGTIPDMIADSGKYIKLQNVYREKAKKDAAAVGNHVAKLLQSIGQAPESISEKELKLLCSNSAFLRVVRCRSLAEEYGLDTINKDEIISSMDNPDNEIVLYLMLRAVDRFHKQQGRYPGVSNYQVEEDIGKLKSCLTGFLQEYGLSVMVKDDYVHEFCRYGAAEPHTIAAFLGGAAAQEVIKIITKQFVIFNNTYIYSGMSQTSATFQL

- IC50 [1]: 1900 nM
- IC50 [4]: 110 nM
- IC50 [6]: > 10000 nM
- IC50 [8]: 180 nM
- IC50 [9]: 1500 nM
- IC50 [10]: 89 nM
- IC50 [11]: 89 nM
- IC50 [13]: 1400 nM
- IC50 ([14]; 4-nitrophenyl acetate esterase activity, absorbance at 405 nm): 0.012 µM
- IC50 [15]: 560 nM
- IC50 [17]: 750 nM
- IC50 [18]: 410 nM
Compound: NS(=O)(=O)OC[C@@H]1C[C@@H](n2ccc3c(N[C@H]4CCc5ccccc54)ncnc32)C[C@@H]1O [Comparative Example, N-[(1S)-1-indanyl]-7-[(1R)-3α-hydroxy-4α-(sulfamoyloxymethyl)cyclopentyl]-7H-pyrrolo[2,3-d]pyrimidin-4-amine]
- RTV15 comparison with control [2]: significantly lower than that of the control
- BWC15 (%) Mean ± SD ([3]; body weight change rate day 15, dose 120 mg/kg/day intravenous, administration day 1, 4, 8, 11): −14.3 ± 5.1%
- BWC15 (%) Mean ± SD ([5]; CCRF-CEM xenograft in nude mice, 120 mg/kg/day i.v., administration days 1, 4, 8, 11, day 15): 6.1 ± 2.6%
- RTV15 comparison with control [7]: significantly lower than that of the control
- BWC15 (%) Mean ± SD [12]: −8.4 ± 3.2%
- inhibitory activity against carbonic anhydrase II ([14]; summary in words of Table 18): exhibited inhibitory activity against carbonic anhydrase II
- RTV comparison with control on day 15 [16]: significantly lower than that of the control

Compound: Nc1ncnc2c1c(C#Cc1c(F)cccc1F)cn2[C@@H]1O[C@H](CNS(N)(=O)=O)[C@@H](O)[C@H]1O [Example 1, 4-Amino-5-[2-(2,6-difluorophenyl)ethynyl]-7-[(2R,3R,4S,5R)-3,4-dihydroxy-5-[(sulfamoylamino)methyl]tetrahydrofuran-2-yl]pyrrolo[2,3-d]pyrimidine]
- change of the body weight compared with the control ([3]; HCT-116 nude mice, Test Example 5): within an acceptable degree
- RTV comparison with Comparative Example ([7]; Aspin-Welch's t-test): significantly lower than that of the Comparative Example
- RTV15 comparison with control [7]: significantly lower than that of the control

Compound: CN1CCOc2c1ccc(F)c2C#Cc1cn([C@@H]2O[C@H](CNS(N)(=O)=O)[C@@H](O)[C@H]2O)c2ncnc(N)c12 [Example 64, 8-[2-[4-Amino-7-[(2R,3R,4S,5R)-3,4-dihydroxy-5-[(sulfamoylamino)methyl]tetrahydrofuran-2-yl]pyrrolo[2,3-d]pyrimidin-5-yl]ethynyl]-7-fluoro-4-methyl-2,3-dihydro-1,4-benzoxazine]
- RTV comparison with Comparative Example [16]: significantly lower than that of the Comparative Example
- RTV comparison with control on day 15 [16]: significantly lower than that of the control

Compound: Nc1ncnc2c1c(C#Cc1c(F)cc(N3CC[C@H](F)C3)cc1F)cn2[C@@H]1C[C@H](CNS(N)(=O)=O)[C@@H](O)[C@H]1O [Example 116, 4-Amino-5-[2-[2,6-difluoro-4-[(3S)-3-fluoropyrrolidin-1-yl]phenyl]ethynyl]-7-[(1R,2S,3R,4R)-2,3-dihydroxy-4-[(sulfamoylamino)methyl]cyclopentyl]pyrrolo[2,3-d]pyrimidine]
- IC50 [19]: 0.0051 µM

Compound: Nc1ncnc2c1c(C#Cc1c(F)cc(N3CC[C@@H](O)C3)cc1F)cn2[C@@H]1C[C@H](CNS(N)(=O)=O)[C@@H](O)[C@H]1O [Example 120, 4-Amino-5-[2-[2,6-difluoro-4-[(3R)-3-hydroxypyrrolidin-1-yl]phenyl]ethynyl]-7-[(1R,2S,3R,4R)-2,3-dihydroxy-4-[(sulfamoylamino)methyl]cyclopentyl]pyrrolo[2,3-d]pyrimidine]
- change of the body weight compared with the control [5]: almost the same as that of the control
- RTV comparison with control on day 15 [16]: significantly lower than that of the control

Compound: Nc1ncnc2c1c(C#Cc1c(F)cc(N3CC[C@H](O)C3)cc1F)cn2[C@@H]1C[C@H](CNS(N)(=O)=O)[C@@H](O)[C@H]1O [Example 121, 4-Amino-5-[2-[2,6-difluoro-4-[(3S)-3-hydroxypyrrolidin-1-yl]phenyl]ethynyl]-7-[(1R,2S,3R,4R)-2,3-dihydroxy-4-[(sulfamoylamino)methyl]cyclopentyl]pyrrolo[2,3-d]pyrimidine]
- IC50 [19]: 0.0062 µM

Compound: CN1CCOc2c1ccc(F)c2C#Cc1cn([C@@H]2C[C@H](CNS(N)(=O)=O)[C@@H](O)[C@H]2O)c2ncnc(N)c12 [Example 122, 8-[2-[4-amino-7-[(1R,2S,3R,4R)-2,3-dihydroxy-4-[(sulfamoylamino)methyl]cyclopentyl]pyrrolo[2,3-d]pyrimidin-5-yl]ethynyl]-7-fluoro-4-methyl-2,3-dihydro-1,4-benzoxazine]
- RTV comparison with Comparative Example [16]: significantly lower than that of the Comparative Example
- RTV comparison with control on day 15 [16]: significantly lower than that of the control

Compound: Nc1ncnc2c1c(C#Cc1c(F)cccc1F)cn2[C@@H]1C=C(CNS(N)(=O)=O)[C@@H](O)[C@H]1O [Example 128, 4-Amino-5-[2-(2,6-difluorophenyl)ethynyl]-7-[(1R,4R,5S)-4,5-dihydroxy-3-[(sulfamoylamino)methyl]cyclopent-2-en-1-yl]pyrrolo[2,3-d]pyrimidine]
- IC50 [19]: 0.0033 µM

Compound: Nc1ncnc2c1c(C#Cc1cccc3ccccc13)cn2[C@@H]1O[C@H](COS(N)(=O)=O)[C@@H](O)[C@H]1O [Example 133, [(2R,3S,4R,5R)-5-[4-Amino-5-[2-(1-naphthyl)ethynyl]pyrrolo[2,3-d]pyrimidin-7-yl]-3,4-dihydroxy-tetrahydrofuran-2-yl]methyl sulfamate]
- change of the body weight compared with the control [5]: almost the same as that of the control
- RTV comparison with control on day 15 [16]: significantly lower than that of the control
